From article PMC6063448, “Antimicrobial activity of linear lipopeptides derived from BP100 towards plant pathogens” (PLoS ONE, 2018)

Assays:
Format in all cases: cell-based
[1] = system: Fusarium oxysporum f. sp. lycopersici FOL 3 race 2; assay: MIC, antifungal growth inhibition in microtiter plates (PDB); settings: Fo, 22°C, seven days, OD 600 nm, lowest concentration with no growth, given as interval of tested concentrations, three replicates, experiment repeated twice
Procedure, shortened: (§1)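 Conidial suspensions (10^3 conidia/mL P. expansum, 10^4 F. oxysporum) incubated with peptides in PDB with 0.003% chloramphenicol at 22 °C for seven days, OD600 read every 2 h. MIC is the lowest concentration with no growth at the end; triplicates, experiment repeated twice.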

[2] = system: Penicillium expansum EPS26; assay: as above; settings: Pe, 22°C, seven days, OD 600 nm, lowest concentration with no growth, given as interval of tested concentrations, three replicates, experiment repeated twice
Procedure, shortened: as §1

[3] = system: Erwinia amylovora PMV6076; assay: MIC, growth inhibition in microtiter plates (TSB); settings: Ea, 25°C, 48 h, OD 600 nm, lowest concentration with no growth, given as interval of tested concentrations, three replicates, experiment repeated twice
Procedure, shortened: (§2)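 OD600 readout, hourly over 48 h at 25°C, 20 s shaking; TSB medium; inoculum from 10^8 CFU mL^-1 water suspension; triplicates, experiment run twice; MIC = lowest concentration showing no growth at endpoint.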

[4] = system: Pseudomonas syringae pv. actinidiae Psa3700.1.1; assay: MIC, growth inhibition in microtiter plates (TSB); settings: Psa, 25°C, 48 h, OD 600 nm, lowest concentration with no growth, given as interval of tested concentrations, three replicates, experiment repeated twice
Procedure, shortened: as §2

[5] = system: Xanthomonas fragariae Xf349-9A; assay: MIC, growth inhibition in microtiter plates (TSB); settings: Xf, 25°C, 48 h, OD 600 nm, lowest concentration with no growth, given as interval of tested concentrations, three replicates, experiment repeated twice
Procedure, shortened: as §2

[6] = system: Pseudomonas syringae pv. syringae EPS94; assay: MIC, growth inhibition in microtiter plates (TSB); settings: Pss, 25°C, 48 h, OD 600 nm, lowest concentration with no growth, given as interval of tested concentrations, three replicates, experiment repeated twice
Procedure, shortened: as §2

[7] = system: Xanthomonas axonopodis pv. vesicatoria 2133–2; assay: MIC, growth inhibition in microtiter plates (TSB); settings: Xav, 25°C, 48 h, OD 600 nm, lowest concentration with no growth, given as interval of tested concentrations, three replicates, experiment repeated twice
Procedure, shortened: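 Peptides, dissolved in water at 1 mM and filter-sterilized, were diluted and mixed with bacterial suspension (10^8 CFU mL^-1 before mixing) in TSB. Plates were incubated at 25°C with shaking, and OD600 was read hourly for 48 h. MIC was the lowest concentration with no growth at the end.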

[8] = system: Xanthomonas arboricola pv. pruni CFBP5563; assay: MIC, growth inhibition in microtiter plates (TSB); settings: Xap, 25°C, 48 h, OD 600 nm, lowest concentration with no growth, given as interval of tested concentrations, three replicates, experiment repeated twice
Procedure, shortened: as §2

SMILES | MIC [1] | MIC [2] | MIC [3] | MIC [4] | MIC [5] | MIC [6] | MIC [7] | MIC [8]
CCCCCC(=O)NCCCC[C@H](NC(=O)[C@H](CC(C)C)NC(=O)[C@H](CCCCN)NC(=O)[C@H](CCCCN)NC(C)=O)C(=O)N[C@@H](CCCCN)C(=O)N[C@@H](CCCCN)C(=O)N[C@H](C(=O)N[C@@H](CC(C)C)C(=O)N[C@@H](CCCCN)C(=O)N[C@@H](Cc1ccc(O)cc1)C(=O)N[C@@H](CC(C)C)C(N)=O)[C@@H](C)CC [BP371, Ac-KKLK(COC5H11)KKILKYL-NH2] | 0.8 to 1.6 µM | 3.1 to 6.2 µM | 3.1 to 6.2 µM | 3.1 to 6.2 µM | 3.1 to 6.2 µM | 3.1 to 6.2 µM | 3.1 to 6.2 µM | 3.1 to 6.2 µM
CCCC(=O)NCCCC[C@H](NC(=O)[C@H](CCCCN)NC(=O)[C@H](Cc1ccccc1)NC(=O)[C@H](CC(C)C)NC(=O)[C@H](CCCCN)NC(=O)[C@H](CCCCN)NC(C)=O)C(=O)N[C@H](C(=O)N[C@@H](CC(C)C)C(=O)N[C@@H](CCCCN)C(=O)N[C@@H](Cc1ccc(O)cc1)C(=O)N[C@@H](CC(C)C)C(N)=O)[C@@H](C)CC [BP385, Ac-KKLFKK(COC3H7)ILKYL-NH2] | 1.6 to 3.1 µM | 6.2 to 12.5 µM | 6.2 to 12.5 µM | 6.2 to 12.5 µM | 1.6 to 3.1 µM | 6.2 to 12.5 µM | 0.8 to 1.6 µM | 0.8 to 1.6 µM
CCCC(=O)NCCCC[C@H](NC(=O)[C@H](Cc1ccc(O)cc1)NC(=O)[C@H](CCCCN)NC(=O)[C@H](CC(C)C)NC(=O)[C@@H](NC(=O)[C@H](CCCCN)NC(=O)[C@H](CCCCN)NC(=O)[C@H](Cc1ccccc1)NC(=O)[C@H](CC(C)C)NC(=O)[C@H](CCCCN)NC(=O)[C@H](CCCCN)NC(C)=O)[C@@H](C)CC)C(N)=O [BP390, Ac-KKLFKKILKYK(COC3H7)-NH2] | 0.8 to 1.6 µM | 6.2 to 12.5 µM | 3.1 to 6.2 µM | 6.2 to 12.5 µM | 3.1 to 6.2 µM | 6.2 to 12.5 µM | 3.1 to 6.2 µM | 6.2 to 12.5 µM
CCCCCCCCCCCC(=O)NCCCC[C@H](NC(=O)[C@H](CC(C)C)NC(=O)[C@@H](NC(=O)[C@H](CCCCN)NC(=O)[C@H](CCCCN)NC(=O)[C@H](Cc1ccccc1)NC(=O)[C@H](CC(C)C)NC(=O)[C@H](CCCCN)NC(=O)[C@H](CCCCN)NC(C)=O)[C@@H](C)CC)C(=O)N[C@@H](Cc1ccc(O)cc1)C(=O)N[C@@H](CC(C)C)C(N)=O [BP400, Ac-KKLFKKILK(COC11H23)YL-NH2] | 6.2 to 12.5 µM | >25 µM | >25 µM | >25 µM | 3.1 to 6.2 µM | >25 µM | 1.6 to 3.1 µM | 1.6 to 3.1 µM
CCCCCC(=O)NCCCC[C@H](NC(=O)[C@H](CCCCN)NC(=O)[C@H](CCCCN)NC(=O)[C@H](Cc1ccccc1)NC(=O)[C@H](CC(C)C)NC(=O)[C@H](CCCCN)NC(=O)[C@H](CCCCN)NC(C)=O)C(=O)N[C@@H](CC(C)C)C(=O)N[C@@H](CCCCN)C(=O)N[C@@H](Cc1ccc(O)cc1)C(=O)N[C@@H](CC(C)C)C(N)=O [BP374, Ac-KKLFKKK(COC5H11)LKYL-NH2] | 0.8 to 1.6 µM | >25 µM | 3.1 to 6.2 µM | 3.1 to 6.2 µM | 3.1 to 6.2 µM | 6.2 to 12.5 µM | 6.2 to 12.5 µM | 6.2 to 12.5 µM
CCCC(=O)NCCCC[C@H](NC(=O)[C@@H](NC(=O)[C@H](CCCCN)NC(=O)[C@H](CCCCN)NC(=O)[C@H](Cc1ccccc1)NC(=O)[C@H](CC(C)C)NC(=O)[C@H](CCCCN)NC(=O)[C@H](CCCCN)NC(C)=O)[C@@H](C)CC)C(=O)N[C@@H](CCCCN)C(=O)N[C@@H](Cc1ccc(O)cc1)C(=O)N[C@@H](CC(C)C)C(N)=O [BP387, Ac-KKLFKKIK(COC3H7)KYL-NH2] | 0.8 to 1.6 µM | 6.2 to 12.5 µM | 3.1 to 6.2 µM | 3.1 to 6.2 µM | 1.6 to 3.1 µM | 3.1 to 6.2 µM | 1.6 to 3.1 µM | 3.1 to 6.2 µM
CCCCCC(=O)NCCCC[C@H](NC(=O)[C@H](Cc1ccc(O)cc1)NC(=O)[C@H](CCCCN)NC(=O)[C@H](CC(C)C)NC(=O)[C@@H](NC(=O)[C@H](CCCCN)NC(=O)[C@H](CCCCN)NC(=O)[C@H](Cc1ccccc1)NC(=O)[C@H](CC(C)C)NC(=O)[C@H](CCCCN)NC(=O)[C@H](CCCCN)NC(C)=O)[C@@H](C)CC)C(N)=O [BP378, Ac-KKLFKKILKYK(COC5H11)-NH2] | 0.8 to 1.6 µM | 3.1 to 6.2 µM | 3.1 to 6.2 µM | 3.1 to 6.2 µM | 3.1 to 6.2 µM | 6.2 to 12.5 µM | 3.1 to 6.2 µM | 3.1 to 6.2 µM
CC[C@H](C)[C@H](NC(=O)[C@H](CCCCN)NC(=O)[C@H](CCCCN)NC(=O)[C@H](Cc1ccccc1)NC(=O)[C@H](CC(C)C)NC(=O)[C@H](CCCCN)NC(=O)[C@@H](N)CCCCN)C(=O)N[C@@H](CC(C)C)C(=O)N[C@@H](CCCCN)C(=O)N[C@@H](Cc1ccc(O)cc1)C(=O)N[C@@H](CC(C)C)C(N)=O [BP100, H-Lys-Lys-Leu-Phe-Lys-Lys-Ile-Leu-Lys-Tyr-Leu-NH2] | 0.8 to 1.6 µM | >25 µM | 3.1 to 6.2 µM | 1.6 to 3.1 µM | 3.1 to 6.2 µM | 3.1 to 6.2 µM | 3.1 to 6.2 µM | 1.6 to 3.1 µM
CCCC(=O)NCCCC[C@H](NC(=O)[C@H](CCCCN)NC(C)=O)C(=O)N[C@@H](CC(C)C)C(=O)N[C@@H](Cc1ccccc1)C(=O)N[C@@H](CCCCN)C(=O)N[C@@H](CCCCN)C(=O)N[C@H](C(=O)N[C@@H](CC(C)C)C(=O)N[C@@H](CCCCN)C(=O)N[C@@H](Cc1ccc(O)cc1)C(=O)N[C@@H](CC(C)C)C(N)=O)[C@@H](C)CC [BP381, Ac-KK(COC3H7)LFKKILKYL-NH2] | 0.8 to 1.6 µM | 1.6 to 3.1 µM | 3.1 to 6.2 µM | 3.1 to 6.2 µM | 1.6 to 3.1 µM | 3.1 to 6.2 µM | 1.6 to 3.1 µM | 3.1 to 6.2 µM
CCCC(=O)NCCCC[C@H](NC(=O)[C@H](CCCCN)NC(=O)[C@H](CC(C)C)NC(=O)[C@@H](NC(=O)[C@H](CCCCN)NC(=O)[C@H](CCCCN)NC(=O)[C@H](Cc1ccccc1)NC(=O)[C@H](CC(C)C)NC(=O)[C@H](CCCCN)NC(=O)[C@H](CCCCN)NC(C)=O)[C@@H](C)CC)C(=O)N[C@@H](CC(C)C)C(N)=O [BP389, Ac-KKLFKKILKK(COC3H7)L-NH2] | 1.6 to 3.1 µM | 6.2 to 12.5 µM | 3.1 to 6.2 µM | 3.1 to 6.2 µM | 1.6 to 3.1 µM | 6.2 to 12.5 µM | 0.8 to 1.6 µM | 0.8 to 1.6 µM
